Reference: US5196327A, “Process for producing antifungal fermentation products and compositions thereof” (Merck & Co., Inc., priority 1991, dated 1993)
Converted amounts (≈) assume the structure as drawn.

Experiments:
Experiment in all cases: Agar dilution assay, MIC
A. flavus MF0383 = type: cell-based, Aspergillus flavus; conditions: strain MF0383, yeast nitrogen base dextrose agar
Protocol: (§1) In separate operations, in vitro antifungal activity determinations were carried out with Compound IB and with Compound IC against a panel of filamentous and yeast-like fungi employing yeast nitrogen base dextrose agar medium. In carrying out the assay, the compound to be tested was solubilized in 10 percent dimethyl sulfoxide (DMSO) supplemented with one drop of Tween 20. Two-fold dilutions were made with sterile distilled water/10% DMSO to obtain final concentrations in the agar dilution assay plates ranging from 64 to 0.06 μg/ml in the operation with Compound IB and from 128 to 0.06 μg/ml in the operation with Compound IC.
(§2) Nystatin (commercially available antifungal agent) was used as a positive antifungal control.

Sac. cerevisiae MY1027 = type: cell-based, Saccharomyces cerevisiae; conditions: strain MY1027, yeast nitrogen base dextrose agar
Protocol: as §1, §2

Ca. tropicalis MY1011 = type: cell-based, Candida tropicalis; conditions: strain MY1011, yeast nitrogen base dextrose agar
Protocol: as §1, §2

Ca. tropicalis MY1012 = type: cell-based, Candida tropicalis; conditions: strain MY1012, yeast nitrogen base dextrose agar
Protocol: as §1, §2

[1] = test system: Ca. pseudotropicalis MY1040; type: cell-based, Candida pseudotropicalis; conditions: strain MY1040, yeast nitrogen base dextrose agar
Protocol: as §1, §2

Ca. krusei MY1020 = type: cell-based; conditions: strain MY1020, yeast nitrogen base dextrose agar
Protocol: as §1, §2

[2] = test system: Penicillium italicum MF2819; type: cell-based; conditions: strain MF2819, yeast nitrogen base dextrose agar
Protocol: as §1, §2

[3] = test system: Torulopsis glabrata MY1059; type: cell-based; conditions: strain MY1059, yeast nitrogen base dextrose agar
Protocol: as §1, §2

[4] = test system: Cryptococcus neoformans MY1051; type: cell-based; conditions: strain MY1051, yeast nitrogen base dextrose agar
Protocol: as §1, §2

Candida albicans MY1058 = type: cell-based; conditions: strain MY1058, yeast nitrogen base dextrose agar
Protocol: as §1, §2

[5] = test system: Aspergillus fumigatus MF4839; type: cell-based; conditions: strain MF4839, yeast nitrogen base dextrose agar
Protocol: as §1, §2

Ca. parapsilosis MY1009 = type: cell-based; conditions: strain MY1009, yeast nitrogen base dextrose agar
Protocol: as §1, §2

Ca. parapsilosis MY1010 = type: cell-based; conditions: strain MY1010, yeast nitrogen base dextrose agar
Protocol: as §1, §2

Ca. guilliermondi MY1019 = type: cell-based; conditions: strain MY1019, yeast nitrogen base dextrose agar
Protocol: as §1, §2

Ca. stellatoidea MY1017 = type: cell-based; conditions: strain MY1017, yeast nitrogen base dextrose agar
Protocol: as §1, §2

Ca. albicans MY1055 = type: cell-based, Candida albicans; conditions: strain MY1055, yeast nitrogen base dextrose agar
Protocol: as §1, §2

Ca. albicans MY1013 = type: cell-based, Candida albicans; conditions: strain MY1013, yeast nitrogen base dextrose agar
Protocol: as §1, §2

Ca. albicans MY0992 = type: cell-based, Candida albicans; conditions: strain MY0992, yeast nitrogen base dextrose agar
Protocol: as §1, §2

Ca. albicans MY1029 = type: cell-based, Candida albicans; conditions: strain MY1029, yeast nitrogen base dextrose agar
Protocol: as §1, §2

Cr. neoformans MY1146 = type: cell-based, Cryptococcus neoformans; conditions: strain MY1146, yeast nitrogen base dextrose agar
Protocol: as §1, §2

Ca. rugosa MY1022 = type: cell-based, Candida rugosa; conditions: strain MY1022, yeast nitrogen base dextrose agar
Protocol: as §1, §2

[6] = read-out: Minimum Inhibitory Concentration

SMILES: CCCCCCC(O)CCCCCCC=CC(OC(C)=O)C(O)C(O)C(N)C(=O)O (stereo not drawn) [Compound IC, 5-acetyloxy-2-amino-3,4,14-trihydroxy-6-eicosenoic acid]
- MIC (A. flavus MF0383; [6]): 64 µg/mL (≈ 148 µM)
- MIC (Sac. cerevisiae MY1027; Saccharomyces cerevisiae, read-out: Minimum Inhibitory Concentration): 32 µg/mL (≈ 74.1 µM)
- MIC (Ca. tropicalis MY1011; [6]): 32 µg/mL (≈ 74.1 µM)
- MIC (Ca. tropicalis MY1012; [6]): 2 µg/mL (≈ 4.63 µM)
- MIC [1, 6]: 2 µg/mL (≈ 4.63 µM)
- MIC (Ca. krusei MY1020; [6]): > 128 µg/mL
- MIC [2, 6]: 32 µg/mL (≈ 74.1 µM)
- MIC [3, 6]: 16 µg/mL (≈ 37.1 µM)
- MIC [4, 6]: 2 µg/mL (≈ 4.63 µM)
- MIC (Candida albicans MY1058; [6]): 32 µg/mL (≈ 74.1 µM)
- MIC [5, 6]: 64 µg/mL (≈ 148 µM)
- MIC (Ca. parapsilosis MY1009; [6]): > 128 µg/mL
- MIC (Ca. parapsilosis MY1010; [6]): 8 µg/mL (≈ 18.5 µM)
- MIC (Ca. guilliermondi MY1019; [6]): > 128 µg/mL
- MIC (Ca. stellatoidea MY1017; [6]): 32 µg/mL (≈ 74.1 µM)
- MIC (Ca. albicans MY1055; [6]): 128 µg/mL (≈ 297 µM)
- MIC (Ca. albicans MY1013; [6]): 128 µg/mL (≈ 297 µM)
- MIC (Ca. albicans MY0992; [6]): 128 µg/mL (≈ 297 µM)
- MIC (Ca. albicans MY1029; [6]): > 128 µg/mL
- MIC (Cr. neoformans MY1146; [6]): 2 µg/mL (≈ 4.63 µM)
- MIC (Ca. rugosa MY1022; [6]): > 128 µg/mL

SMILES: C[C@@H]1[C@H](O)[C@@H](C)/C=C/C=C/CC/C=C/C=C/C=C/C=C/C(O[C@H]2O[C@H](C)[C@@H](O)[C@H](N)[C@@H]2O)CC2O[C@](O)(CC(O)C(O)CCC(O)CC(O)CC(O)CC(=O)O[C@H]1C)CC(O)C2C(=O)O (stereo partly drawn) [Nystatin, reference compound]
- Minimum Inhibitory Concentration (A. flavus MF0383): 2 µg/mL
- Minimum Inhibitory Concentration (Sac. cerevisiae MY1027): 1 µg/mL
- Minimum Inhibitory Concentration (Ca. tropicalis MY1011): 2 µg/mL
- Minimum Inhibitory Concentration (Ca. tropicalis MY1012): > 128 µg/mL
- Minimum Inhibitory Concentration [1]: 1 µg/mL
- Minimum Inhibitory Concentration (Ca. krusei MY1020): 2 µg/mL
- Minimum Inhibitory Concentration [2]: 2 µg/mL
- Minimum Inhibitory Concentration [3]: 1 µg/mL
- Minimum Inhibitory Concentration [4]: 2 µg/mL
- Minimum Inhibitory Concentration (Candida albicans MY1058): 2 µg/mL
- Minimum Inhibitory Concentration [5]: 2 µg/mL
- Minimum Inhibitory Concentration (Ca. parapsilosis MY1009): 4 µg/mL
- Minimum Inhibitory Concentration (Ca. parapsilosis MY1010): 2 µg/mL
- Minimum Inhibitory Concentration (Ca. guilliermondi MY1019): 2 µg/mL
- Minimum Inhibitory Concentration (Ca. stellatoidea MY1017): 2 µg/mL
- Minimum Inhibitory Concentration (Ca. albicans MY1055): 2 µg/mL
- Minimum Inhibitory Concentration (Ca. albicans MY1013): 2 µg/mL
- Minimum Inhibitory Concentration (Ca. albicans MY0992): 2 µg/mL
- Minimum Inhibitory Concentration (Ca. albicans MY1029): 2 µg/mL
- Minimum Inhibitory Concentration (Cr. neoformans MY1146): 2 µg/mL
- Minimum Inhibitory Concentration (Ca. rugosa MY1022): 4 µg/mL
